Test results: patent US20040142958A1, “Combination therapy for the treatment of pain” (Neurogen Corporation, priority 2002, published 2004)

What was measured:
rats [1] = assay: Carrageenan-induced thermal hyperalgesia, VR1 antagonist and morphine in combination; format: in vivo, rat
Description: Briefly, a constant radiant heat source is applied the animals' plantar surface of either hind paw. The time to withdrawal (ie., the amount of time that heat is applied before the animal moves its paw), otherwise described as thermal threshold or latency, determines the animal's hind paw sensitivity to heat.
Rats received oral administration of 0.1 mg/kg VR1 antagonist ([2-(2,6-dimethyl-morpholin-4-ylmethyl)-7-(3-trifluoromethyl-pyridin-2-yl)-pyrido[3,2-d]pyrimidin-4-yl]-(4-trifluoromethyl-phenyl)-amine (cis)) or vehicle alone in a solution of 2% vitamin E (d-alpha tocopheryl polyethylene glycol 1000 succinate) in distilled water. One hour later, 100 μL of 1% carrageenan was injected in the intraplantar aspect of the left paw. 2 hours after carrageenan injection, the rats were treated subcutaneously with saline or 1 mg/kg of morphine sulfate in saline. One hour after subcutaneous treatment, each rat's thermal withdrawal latency (i.e., the amount of time that heat is applied before the animal moves its paw) was determined. This latency was compared with the latency determined for each rat on the day prior to the experiment (baseline day).
The data are presented in FIG. 4, expressed as a decrease in paw withdrawal latency (latency on test day—latency on baseline day).

rats [2] = assay: CFA-induced chronic inflammatory pain, mechanical allodynia (von Frey), tolerance to morphine; format: in vivo, rat; conditions: once per day for four days; for withdrawal threshold from a von Frey filament: Treatment Day 4, 1 hour after treatment, ANOVA and Fisher's PLSD
Description: A positive allodynic response consists of lifting the affected paw followed immediately by licking or shaking of the paw.

[3] = oral VR1 antagonist 0.3 mg/kg and subcutaneous morphine sulfate 3 mg/kg

C[C@@H]1CN(Cc2nc(Nc3ccc(C(F)(F)F)cc3)c3ncc(-c4ncccc4C(F)(F)F)cc3n2)C[C@H](C)O1 [VR1 antagonist, [2-(2,6-dimethyl-morpholin-4-ylmethyl)-7-(3-trifluoromethyl-pyridin-2-yl)-pyrido[3,2-d]pyrimidin-4-yl]-(4-trifluoromethyl-phenyl)-amine (cis)]
decrease in thermal paw withdrawal latency (carrageenan-induced thermal hyperalgesia) (rats [1]; VR1 antagonist alone, 0.1 mg/kg oral, with s.c. saline, ANOVA, Fisher's PLSD): statistically significant effect | decrease in thermal paw withdrawal latency (carrageenan-induced thermal hyperalgesia) (rats [1]; coadministration of 1 mg/kg morphine s.c. with VR1 antagonist 0.1 mg/kg oral): greatest effect | tolerance to repeated morphine dosing (rats [2]; [3]): prevents tolerance to repeated morphine dosing | withdrawal threshold from a von Frey filament (rats [2]; [3]): statistically significantly higher withdrawal thresholds than any other treatment group

CN1CC[C@]23c4c5ccc(O)c4O[C@H]2[C@@H](O)C=C[C@H]3[C@H]1C5 [morphine, reference compound]
decrease in thermal paw withdrawal latency (carrageenan-induced thermal hyperalgesia) (rats [1]; 1 mg/kg morphine s.c. with oral vehicle, 1 hour after subcutaneous treatment, ANOVA, Fisher's PLSD): ineffective in reversing carrageenan-induced thermal hyperalgesia | withdrawal threshold from a von Frey filament (rats [2]; oral vehicle and subcutaneous morphine sulfate 3 mg/kg): not significantly different from oral vehicle and subcutaneous vehicle controls
